Results taken from patent US5447926A, “Quinolone carboxylic acid derivatives” (SS Pharmaceutical Co., Ltd., priority 1990, dated 1995).
Converted amounts (≈) assume the structure as drawn.

Tests used:
[1] = test system: M.R. Staphylococcus aureus 419; conditions: 24 h
[2] = test system: M.R. Staphylococcus aureus 395; conditions: 24 h
[3] = test system: Proteus rettgeri; conditions: Providencia rettgeri, 24 h
[4] = test system: Pseudomonas aeruginosa P2; conditions: P2, 24 h
[5] = test system: M.R. Staphylococcus aureus 420; conditions: 24 h
[6] = test system: Escherichia coli H-12; conditions: H12, 24 h
[7] = test system: Pseudomonas aeruginosa IFO 13736; conditions: IFO13736, 24 h
[8] = test system: M.R. Staphylococcus aureus 415; conditions: 24 h
[9] = test system: Salmonella typhi TD; assay type: cell-based; conditions: Salmonella enterica, 24 h
[10] = test system: Staphylococcus aureus Smith; conditions: 24 h
[11] = test system: M.R. Staphylococcus aureus 421; conditions: 24 h
[12] = test system: Serratia marcescens NHL; conditions: 24 h
[13] = test system: Bacillus subtilis ATCC 6633; conditions: ATCC6633, 24 h
[14] = test system: Micrococcus lysodeikticus IFO 3333; conditions: Micrococcus luteus, IFO3333, 24 h
[15] = test system: Shigella flexneri 2b; assay type: cell-based; conditions: 24 h
[16] = test system: Klebsiella pneumonias ATCC 10031; conditions: ATCC10031, 24 h
[17] = test system: Escherichia coli 0-1; conditions: Escherichia coli, 01, 24 h
[18] = test system: Proteus vulgaris OXK; conditions: 24 h
[19] = test system: Staphylococcus epidermidis ATCC 12228; conditions: ATCC12228, 24 h
[20] = test system: Sarcina lutea ATCC 9341; conditions: Micrococcus luteus, ATCC9341, 24 h
[21] = test system: Klebsiella pneumonias IFO 13541; assay type: cell-based; conditions: IFO13541, 24 h, Gram-negative, Mueller Hinton Medium, 10^6 /ml, 37° C.
[22] = test system: Strepto occus faecalis IFO 12964; conditions: 24 h
[23] = test system: Staphylococcus aureus FDA 209P; conditions: FDA209P, 24 h
[24] = test system: Pseudomonas aeruginosa IFO 12582; conditions: IFO12582, 24 h
[25] = test system: Staphylococcus aureus Terajima; conditions: 24 h

Structure (SMILES) | MIC [1] [µg/mL] | MIC [2] [µg/mL] | MIC [3] [µg/mL] | MIC [4] [µg/mL] | MIC [5] [µg/mL] | MIC [6] [µg/mL] | MIC [7] [µg/mL] | MIC [8] [µg/mL] | MIC [9] [µg/mL] | MIC [10] [µg/mL] | MIC [11] [µg/mL] | MIC [12] [µg/mL] | MIC [13] [µg/mL] | MIC [14] [µg/mL] | MIC [15] [ng/mL] | MIC [16] [µg/mL] | MIC [17] [µg/mL] | MIC [18] [µg/mL] | MIC [19] [µg/mL] | MIC [20] [µg/mL] | also measured
N[C@@H]1CCCCN(c2c(F)cc3c(=O)c(C(=O)O)cn(C4CC4)c3c2Cl)C1 [Compound 15] | 0.024 (≈ 0.0609 µM) | 0.049 (≈ 0.124 µM) | 0.195 (≈ 0.495 µM) | 1.56 (≈ 3.96 µM) | 0.049 (≈ 0.124 µM) | 0.098 (≈ 0.249 µM) | 1.56 (≈ 3.96 µM) | 0.024 (≈ 0.0609 µM) | 0.049 (≈ 0.124 µM) | 0.024 (≈ 0.0609 µM) | 0.049 (≈ 0.124 µM) | 0.195 (≈ 0.495 µM) | 0.024 (≈ 0.0609 µM) | 0.195 (≈ 0.495 µM) | 6 (≈ 0.0152 µM) | 0.012 (≈ 0.0305 µM) | 0.098 (≈ 0.249 µM) | 0.049 (≈ 0.124 µM) | 0.049 (≈ 0.124 µM) | 0.098 (≈ 0.249 µM) | MIC [21]: 0.049 µg/mL (≈ 0.124 µM); MIC [22]: 0.195 µg/mL (≈ 0.495 µM); MIC [23]: 0.012 µg/mL (≈ 0.0305 µM); MIC [24]: 0.78 µg/mL (≈ 1.98 µM); MIC [25]: 0.195 µg/mL (≈ 0.495 µM)
CC1COc2c(N3CCN(C)CC3)c(F)cc3c(=O)c(C(=O)O)cn1c23 (stereo not drawn) [Ofloxacin, reference compound] | 0.39 (≈ 1.08 µM) | 0.39 (≈ 1.08 µM) | 0.098 (≈ 0.271 µM) | 0.78 (≈ 2.16 µM) | 0.39 (≈ 1.08 µM) | 0.098 (≈ 0.271 µM) | 1.56 (≈ 4.32 µM) | 0.39 (≈ 1.08 µM) | 0.024 (≈ 0.0664 µM) | 0.39 (≈ 1.08 µM) | 0.39 (≈ 1.08 µM) | 0.049 (≈ 0.136 µM) | 0.098 (≈ 0.271 µM) | 1.56 (≈ 4.32 µM) | 12 (≈ 0.0332 µM) | 0.024 (≈ 0.0664 µM) | 0.098 (≈ 0.271 µM) | 0.049 (≈ 0.136 µM) | 0.78 (≈ 2.16 µM) | 3.12 (≈ 8.63 µM) | MIC [21]: 0.024 µg/mL (≈ 0.0664 µM); MIC [22]: 1.56 µg/mL (≈ 4.32 µM); MIC [23]: 0.195 µg/mL (≈ 0.54 µM); MIC [24]: 3.12 µg/mL (≈ 8.63 µM); MIC [25]: 0.78 µg/mL (≈ 2.16 µM)
O=C1CCN(c2c(F)cc3c(=O)c(C(=O)O)cn(C4CC4)c3c2Cl)CCN1 [Compound 2, 8-Chloro-1-cyclopropyl-6-fluoro-7-(2,3,4,5,6,7-hexahydro-1H-1,4-diazepin-5-one-1-yl)-4-oxoquinoline-3-carboxylic acid] | 0.024 (≈ 0.0609 µM) | 0.049 (≈ 0.124 µM) | 0.78 (≈ 1.98 µM) | 12.5 (≈ 31.7 µM) | 0.024 (≈ 0.0609 µM) | 0.39 (≈ 0.99 µM) | 6.25 (≈ 15.9 µM) | 0.024 (≈ 0.0609 µM) | 0.098 (≈ 0.249 µM) | 0.012 (≈ 0.0305 µM) | 0.024 (≈ 0.0609 µM) | 0.78 (≈ 1.98 µM) | 0.024 (≈ 0.0609 µM) | 0.049 (≈ 0.124 µM) | 3 (≈ 0.00762 µM) | 0.012 (≈ 0.0305 µM) | 0.195 (≈ 0.495 µM) | 0.024 (≈ 0.0609 µM) | 0.049 (≈ 0.124 µM) | 0.195 (≈ 0.495 µM) | MIC [21]: 0.098 µg/mL (≈ 0.249 µM); MIC [22]: 0.195 µg/mL (≈ 0.495 µM); MIC [23]: 0.012 µg/mL (≈ 0.0305 µM); MIC [24]: 6.25 µg/mL (≈ 15.9 µM); MIC [25]: 0.098 µg/mL (≈ 0.249 µM)
